Article PMC8391127, “Triterpenoid–PEG Ribbons Targeting Selectivity in Pharmacological Effects” (Biomedicines, 2021)
Read-outs that look alike come from different tables or passages of the source. Marks after values point to notes of the source that are not given here.

Experiments:
[1] = test system: HIV-1 (laboratory strain NL4-3); test: microbe, parasite or virus in culture; format: cell-based
Procedure: The cell lines were maintained under standard cell culture conditions at 37 °C and 5% CO2 in a humid environment. Cells were subcultured twice or three times a week using the standard trypsinization procedure.

[2] = test system: Bacillus cereus; test: Antimicrobial screening, resazurine test; format: cell-based; conditions: Bacillus cereus, B. cereus, read-out: Inhibition of the microorganism; for inhibition at 25 µg/mL: c = 25 µg·mL-1; for inhibition at 50 µg/mL: c = 50 µg·mL-1; for inhibition at 100 µg/mL: c = 100 µg·mL-1
Procedure: (§1) The resazurine test was used to evaluate this activity.
(§2) The cell inoculum was made in Mueller–Hinton broth (10 mL). Colonies of cells were inoculated from the solid medium that was cultivated for 24 h under optimum conditions. A part of the inoculum was diluted to get suspension with an optical density 0.6 to 0.9 McF. An aliquot amount (1 mL) was taken and diluted with additional volume of the medium (19 mL). The stored solutions of the tested compounds were made at a concentration c = 200 µg.mL^−1. The stored suspensions of the cells, MHB medium, solutions of the antibiotics specific for the given bacteria (vancomycin for S. aureus and E. faecalis, kanamycin for E. coli and P. aeruginosa, and tetracycline for B. cereus), and the solutions of the compounds were pipetted into the microtitration plates. Subsequently, a concentration sequence of the tested compounds was made (c = 100, 50, and 25 µg.mL^−1). The content of the microtitration plates was cultivated for 24 h under optimum conditions for the given bacteria. A solution of resazurine was made, based on a dilution of its stored solution (c = 0.15 mg.mL^−1; 2 mL) into the MHB medium (18 mL). Then, it was pipetted into the microtitration plates that were cultivated for an additional 1 h. Finally, fluorescence measurement (excitation at 560 nm, emission at 590 nm) was made, and the inhibition of the bacterium was determined.
(§3) 2. Antimicrobial screening tests
(§4) Antimicrobial activity of the target molecular ribbons 8a, 12a, 8b, 12b, 4c, 6c, 6d and 8d, and […]
(§5) aeruginosa, Staphylococcus aureus and Enterococcus faecalis. The resazurine test was used to […]
(§6) ribbons which have been achieved in this investigation.
(§7) Table S1. Antimicrobial activity, inhibition of the microorganism [%]
(§8) Comp. Staphylococcus aureus Comp. Escherichia coli […]
(§9) µg·mL-1 µg·mL-1 µg·mL-1 µg·mL-1 µg·mL-1 µg·mL-1
(§10) Comp. Bacillus cereus Comp. Pseudomonas aeruginosa

[3] = test system: Pseudomonas aeruginosa; test: Antimicrobial screening, resazurine test; format: cell-based; conditions: P. aeruginosa; for inhibition at 25 µg/mL: c = 25 µg·mL-1, read-out: Inhibition of the microorganism; for inhibition at 50 µg/mL: c = 50 µg·mL-1, read-out: Inhibition of the microorganism; for inhibition at 100 µg/mL: c = 100 µg·mL-1, read-out: Inhibition of the microorganism
Procedure: as §1, §2, §3, §4, §5, §6, §7, §8, §9, §10

[4] = test system: Staphylococcus aureus; test: Antimicrobial screening, resazurine test; format: cell-based; conditions: S. aureus; for inhibition at 25 µg/mL / inhibition at 50 µg/mL / inhibition at 100 µg/mL: Staphylococcus aureus, read-out: Inhibition of the microorganism; for inhibition at 50 µg/mL: c = 50 µg·mL-1; for inhibition at 100 µg/mL: c = 100 µg·mL-1
Procedure: as §1, §2, §3, §4, §5, §6, §7, §8, §9, §10

[5] = test system: Escherichia coli; test: Antimicrobial screening, resazurine test; format: cell-based; conditions: E. coli; for inhibition at 25 µg/mL / inhibition at 50 µg/mL / inhibition at 100 µg/mL: Escherichia coli, read-out: Inhibition of the microorganism; for inhibition at 50 µg/mL: c = 50 µg·mL-1; for inhibition at 100 µg/mL: c = 100 µg·mL-1
Procedure: as §1, §2, §3, §4, §5, §6, §7, §8, §9, §10

[6] = test system: Enterococcus faecalis; test: Antimicrobial screening, resazurine test; format: cell-based; conditions: E. faecalis; for inhibition at 25 µg/mL / inhibition at 50 µg/mL / inhibition at 100 µg/mL: Enterococcus faecalis, read-out: Inhibition of the microorganism; for inhibition at 50 µg/mL: c = 50 µg·mL-1; for inhibition at 100 µg/mL: c = 100 µg·mL-1
Procedure: as §1, §2, §3, §4, §5, §6, §7, §8, §9, §10

[7] = Ability to form supramolecular gel; format: physicochemical; conditions: 1% w/v in solvent, ultrasound 30 min, heated to boiling, cooled to r.t. 24 h
Procedure: The solutions of the studied compounds 8a, 12a, 8b, 12b, 4c, 6c, 6d, and 8d (1%, w/v) in the appropriate solvent were mixed with ultrasound for 30 min, then heated to the boiling points of the used solvents, and then allowed to cool down to the r.t. for 24 h. An example of the resulting gels that were produced from 8a, 4c, 6c, and 6d is shown in the Supplementary Material, Figure S1.

[8] = Cytotoxicity screening test, reference cells; format: cell-based; conditions: BJ foreskin fibroblasts; BJ human fibroblasts
From the text: (§11) Description of the experimental procedure used in the cytotoxicity screening test was already published. The following cancer cell lines were used in the investigation: T-lymphoblastic leukemia, CEM; breast carcinoma, MCF7; cervical carcinoma, HeLa; and malignant melanoma, G-361. Human foreskin fibroblasts, BJ, were used as reference cells. All of the above cell lines were obtained from the American Type Culture Collection (Manassas, VA, USA). African green monkey kidney Vero cells were obtained from the European Collection of Cell Cultures (Salisbury, UK) and human T-cell leukemia MT-4 cells were obtained through the NIH AIDS Reagent Program, Division of AIDS, NIAID, NIH, from Dr. Douglas Richman. All cells, but MT-4 cells, were cultured in DMEM (Dulbecco’s Modified Eagle Medium, Sigma, St. Louis, MO, USA). MT-4 cells were maintained in RPMI1640 medium. Media used were supplemented with 10% fetal bovine serum, 2 mM L-glutamine, and 1% penicillin–streptomycin (all Sigma, St. Louis, MO, USA). The cell lines were maintained under standard cell culture conditions at 37 °C and 5% CO2 in a humid environment. Cells were subcultured twice or three times a week using the standard trypsinization procedure.

[9] = Self-assembly by UV-VIS spectrometry in methanol/water mixtures; format: physicochemical; conditions: 0-140 h
Procedure: The self-assembly of the selected compounds 8a, 12a, 8b, 12b, 4c, 6c, 6d, and 8d was measured using UV absorption in methanol/water mixtures with a constant concentration of the studied compound for 7 days in one-hour intervals on the first day, and in 24 h intervals all following days. The stock solutions of the studied compounds were prepared at a concentration of 1 mg·mL^−1 in water. Then, a series of methanol/water mixtures were prepared starting from a methanol/water ratio 100/0 down to 0/100 in 20% steps. The stock solutions of the studied compounds (0.15 mL) were added separately to each vial containing methanol/water mixtures (3 mL), and the UV spectra were recorded in the wavelength range of 200–400 nm. […] For the compounds 8a, 12a, 12b and 6d, the details are presented in the Supplementary Material; see Figure S2.
Supramolecular self-assembly was studied on the basis of the UV-VIS spectra of the compounds in several methanol/water mixtures stepwise during the time interval 0-140 h. Here we show compounds 8a, 12a, 12b and 6d as examples, with which the irregularities in the UV-VIS spectra were either well pronounced (8a and 12a; Figure S2), or no substantial irregularity was detected (12b and 6d).
Figure S2. UV-VIS spectra of 8a (top) and 12a (bottom) measured in the interval 0-140 h.
During that time interval a new maximum appeared at 300 nm wavelength, and the shape of the curves is different than in any of the other intervals of measurement. […]

[10] = Cytotoxicity screening test; format: cell-based; conditions: human
From the text: as §11

Row | Gel formation [7] | Irregularity in UV-VIS spectra (self-assembly) [9] | Compound | inhibition at 25 µg/mL [2] | inhibition at 50 µg/mL [2] | inhibition at 100 µg/mL [2] | inhibition at 25 µg/mL [3] | inhibition at 50 µg/mL [3] | inhibition at 100 µg/mL [3] | inhibition at 25 µg/mL ([4]; c = 25 µg·mL-1) | inhibition at 50 µg/mL [4] | inhibition at 100 µg/mL [4] | inhibition at 25 µg/mL ([5]; c = 25 µg·mL-1) | inhibition at 50 µg/mL [5] | inhibition at 100 µg/mL [5] | inhibition at 25 µg/mL ([6]; c = 25 µg·mL-1) | inhibition at 50 µg/mL [6] | inhibition at 100 µg/mL [6] | other results
1 |  |  | CC(C)OC(=O)[C@H](C)N[P@](=O)(CO[C@H](C)Cn1cnc2c(N)ncnc21)Oc1ccccc1 [tenofovir alafenamide, Tenofovir alafenamide, reference compound] |  |  |  |  |  |  |  |  |  |  |  |  |  |  |  | EC50 ([1]; Human immunodeficiency virus 1, NL43, MT4, read-out: EC50 ± SE against HIV-1): 0.0097 ± 0.0023 µM
2 | produced a gel in glycerol |  | CC1(C)C=C2[C@H]3CC[C@@H]4[C@@]5(C)CCC(=O)C(C)(C)[C@@H]5CC[C@@]4(C)[C@]3(C)CC[C@@]2(C(=O)NCCOCCOCCOCCn2cc(COC(=O)[C@]34CCC(C)(C)C=C3[C@H]3CC[C@@H]5[C@@]6(C)CCC(=O)C(C)(C)[C@@H]6CC[C@@]5(C)[C@]3(C)CC4)nn2)CC1 [4c] | 2 ± 0.3% | 0 to 1% | 6 ± 9% | 50 ± 7.5% | 47 ± 7% | 46 ± 6.8% | 11 ± 1.7% | 66 ± 9.9% | 76 ± 11.4% | 25 ± 3.8% | 34 ± 5.1% | 31 ± 4.7% | > 62% | 50 ± 7.5% | 43 ± 6.5% | Inhibition of the microorganism ([6]; c = 25 µg·mL-1): 62 ± 9.3 ^e %
3 | produced a gel in glycerol | No substantial irregularity was detected | CC1(C)C=C2C3CC[C@@H]4[C@@]5(C)CC[C@H](OCc6cn(CCOCCOCCOCCNC(=O)[C@]78CCC(C)(C)C=C7[C@H]7CC[C@@H]9[C@@]%10(C)CCC(=O)C(C)(C)[C@@H]%10CC[C@@]9(C)[C@]7(C)CC8)nn6)C(C)(C)[C@@H]5CC[C@@]4(C)[C@]3(C)CC[C@@]2(C(=O)O)CC1 (stereo partly drawn) [6d] | 1 ± 0.2% | 0 to 1% | 3 ± 0.5% | 0 to 1% | 0 to 1% | 0 to 1% | 25 ± 3.8% | 31 ± 4.7% | 0 to 1% | 9 ± 1.4% | 13 ± 2% | 0 to 1% | 2 ± 0.3% | 14 ± 2.1% | 28 ± 4.2% | IC50 [8]: > 50 µM; IC50 ([10]; CEM T-lymphoblastic leukemia cells): > 50 µM; IC50 ([10]; G-361 malignant melanoma cells): 20 ± 0.6 µM; IC50 ([10]; HeLa cervical carcinoma cells): > 50 µM; IC50 ([10]; MCF7 breast carcinoma cells): > 50 µM
4 | produced a gel in ethylene glycol | Irregularity was detected | CC1(C)CC[C@]2(C(=O)O)CC[C@]3(C)C(=CC[C@@H]4[C@@]5(C)CC[C@H](OCc6cn(CCOCCOCCOCCNC(=O)[C@]78CCC(C)(C)CC7C7=CC[C@@H]9[C@@]%10(C)CC[C@H](O)C(C)(C)[C@@H]%10CC[C@@]9(C)[C@]7(C)CC8)nn6)C(C)(C)[C@@H]5CC[C@]43C)C2C1 (stereo partly drawn) [8a] | 0 to 1% | 0 to 1% | 0 to 1% | 21 ± 3.2% | 17 ± 2.6% | 14 ± 2.1% | > 50% | 55 ± 8.3% | 68 ± 10.2% | > 50% | 24 ± 3.6% | 0 to 1% | 17 ± 2.6% | 28 ± 4.2% | 32 ± 4.8% | Inhibition of the microorganism ([4]; c = 25 µg·mL-1): 52 ± 7.8 ^e %; Inhibition of the microorganism ([5]; c = 25 µg·mL-1): 51 ± 7.7 ^e %; EC50 ([1]; Human immunodeficiency virus 1, NL43, MT4, HIV-1 NL4-3 in MT-4 cells, read-out: EC50 ± SE against HIV-1): 50.6 ± 7.8 µM
